Patent publication US11589603B2, “Powdered nutritional product containing branched-chain amino acids and a sugar alcohol” (Abbott Laboratories, priority 2015, dated 2023)

Columns and labels:
Format in all cases: physicochemical
[1] = Example 3: aqueous dissolution of powdered branched-chain amino acid blend (first material) with varying myo-inositol, LC/UV of filtrate; settings: for Dissolved amino acid (g per 16 oz.): 7.00 g BCAA blend, water 21° C., 400 rpm
Experimental: (§1) Example 3 evaluates the effect that varying the myo-inositol concentration has on the aqueous dissolution of branched-chain amino acids. Two branched-chain amino acid materials were tested. The first material tested was 7.00 grams of a powdered branched-chain amino acid blend comprising 50 wt. % leucine, 25 wt. % isoleucine, and 25 wt. % valine. The second material tested was 3.5 grams of powdered leucine. Each material was tested with varying levels of powdered myo-inositol, expressed as a percentage of 17.6 grams (e.g., a serving of powdered nutritional product). For example, 1% myo-inositol is 0.176 grams, 2% myo-inositol is 0.352 grams, and so forth. The branched-chain amino acid material and the specified amount of myo-inositol were added to 16 fluid ounces of Milli-Q Plus water at 21° C. and stirred at 400 rpm. After 30 seconds and 60 seconds of stirring, an aliquot was obtained and filtered through a 0.45 μm PTFE membrane (Pall Life Sciences, Acrodisc CR 25, P/N 4501), and the filtrate of the first material was tested for valine, isoleucine, and leucine using the LC/UV method described below, while the filtrate of the second material was tested for leucine using the same LC/UV method. The test results for the first material tested are shown in Table 3, while the test results for the second material tested are shown in Table 4.
(§2) The LC/UV system used to perform the tests comprised the following: 1) Column: YMC ODS-AQ, 4.6 x 250 mm, 5 μm, Waters P/N AQ12S052546WT; 2) Mobile Phase: Milli-Q Plus water; 3) Flow Rate: 0.4 mL/minute; 4) Temperature: 40° C.; 5) Detection: UV at 192 nm; 6) Injection: 2 μL of filtrate; and 7) Run Time: 20 minutes.

[2] = Example 3: aqueous dissolution of powdered leucine only (second material) with varying myo-inositol, LC/UV of filtrate; settings: for Dissolved Leucine (g per 16 oz.): 3.5 g leucine only, water 21° C., 400 rpm
Experimental: as §1, §2

[3] = Example 4: aqueous dissolution of branched-chain amino acids in a powdered nutritional product with varying myo-inositol, LC/UV of filtrate; settings: 17.6 g powdered nutritional product, water 21° C., 400 rpm
Experimental: as §2
Example 4 evaluates the effect that myo-inositol concentration has on the aqueous dissolution of branched-chain amino acids (valine, isoleucine, and leucine) in a powdered nutritional product. One serving (17.6 grams) of the powdered nutritional product contains 7.00 grams of a branched-chain amino acid blend comprising 50 wt. % leucine, 25 wt. % isoleucine, and 25 wt. % valine. A serving of the powdered nutritional product with a specified amount of myo-inositol was added to 16 fluid ounces of Milli-Q Plus water at 21° C. and stirred at 400 rpm. At each specified time point, an aliquot was obtained and filtered through a 0.45 μm PTFE membrane (Pall Life Sciences, Acrodisc CR 25, P/N 4501), and the filtrate was tested for valine, isoleucine, and leucine using the LC/UV method as described in Example 3.

[4] = Example 5: effect of inositol isomers on dissolution of L-leucine, LC/UV of filtrate; settings: 3.50 g L-leucine without inositol isomer (None, n = 3), water 21° C., 400 rpm
Experimental: as §2, with “[…];” for “P/N AQ12S052546WT;”

[5] = myo-inositol 0% of 17.6 g, 30 seconds
[6] = myo-inositol 0% of 17.6 g, 60 seconds
[7] = myo-inositol 1% of 17.6 g, 30 seconds
[8] = myo-inositol 1% of 17.6 g, 60 seconds
[9] = myo-inositol 2% of 17.6 g, 30 seconds
[10] = myo-inositol 2% of 17.6 g, 60 seconds
[11] = myo-inositol 4% of 17.6 g, 30 seconds
[12] = myo-inositol 4% of 17.6 g, 60 seconds
[13] = myo-inositol 8% of 17.6 g, 30 seconds
[14] = myo-inositol 8% of 17.6 g, 60 seconds

- Dissolved amino acid (g per 16 oz.) [1, 5]: 0.596 g per 16 oz.
- Dissolved amino acid (g per 16 oz.) [1, 6]: 1.21 g per 16 oz.
- Dissolved amino acid (g per 16 oz.) [1, 7]: 0.860 g per 16 oz.
- Dissolved amino acid (g per 16 oz.) [1, 8]: 1.51 g per 16 oz.
- Dissolved amino acid (g per 16 oz.) [1, 9]: 0.747 g per 16 oz.
- Dissolved amino acid (g per 16 oz.) [1, 10]: 1.53 g per 16 oz.
- Dissolved amino acid (g per 16 oz.) [1, 11]: 0.729 g per 16 oz.
- Dissolved amino acid (g per 16 oz.) [1, 12]: 1.36 g per 16 oz.
- Dissolved amino acid (g per 16 oz.) [1, 13]: 1.09 g per 16 oz.
- Dissolved amino acid (g per 16 oz.) [1, 14]: 1.94 g per 16 oz.
- dissolution rate of leucine in first material compared with second material (FIG. 4) ([1]; 30 second time point, all myo-inositol concentrations): faster
- Dissolved Leucine (g per 16 oz.) [2, 5]: 0.353 g per 16 oz.
- Dissolved Leucine (g per 16 oz.) [2, 6]: 0.703 g per 16 oz.
- Dissolved Leucine (g per 16 oz.) [2, 7]: 0.480 g per 16 oz.
- Dissolved Leucine (g per 16 oz.) [2, 8]: 1.04 g per 16 oz.
- Dissolved Leucine (g per 16 oz.) [2, 9]: 0.616 g per 16 oz.
- Dissolved Leucine (g per 16 oz.) [2, 10]: 1.33 g per 16 oz.
- Dissolved Leucine (g per 16 oz.) [2, 11]: 0.549 g per 16 oz.
- Dissolved Leucine (g per 16 oz.) [2, 12]: 1.09 g per 16 oz.
- Dissolved Leucine (g per 16 oz.) [2, 13]: 0.844 g per 16 oz.
- Dissolved Leucine (g per 16 oz.) [2, 14]: 1.62 g per 16 oz.
- slope of plot of leucine dissolution vs myo-inositol on a molar basis (FIG. 5) ([2]; second material, myo-inositol 0%, 1%, 2%, 30-second plot): 1.0816
- Dissolved amino acid (g per 16 oz.) ([3]; myo-inositol 0%, 30 seconds): 1.73 g per 16 oz.
- Dissolved amino acid (g per 16 oz.) ([3]; myo-inositol 0%, 60 seconds): 2.42 g per 16 oz.
- Dissolved amino acid (g per 16 oz.) ([3]; myo-inositol 0%, 90 seconds): 2.67 g per 16 oz.
- Dissolved amino acid (g per 16 oz.) ([3]; myo-inositol 0%, 240 seconds): 3.22 g per 16 oz.
- Dissolved amino acid (g per 16 oz.) ([3]; myo-inositol 0%, 600 seconds): 3.44 g per 16 oz.
- Dissolved amino acid (g per 16 oz.) ([3]; myo-inositol 1%, 30 seconds): 1.95 g per 16 oz.
- Dissolved amino acid (g per 16 oz.) ([3]; myo-inositol 1%, 60 seconds): 2.51 g per 16 oz.
- Dissolved amino acid (g per 16 oz.) ([3]; myo-inositol 1%, 90 seconds): 2.76 g per 16 oz.
- Dissolved amino acid (g per 16 oz.) ([3]; myo-inositol 1%, 240 seconds): 3.27 g per 16 oz.
- Dissolved amino acid (g per 16 oz.) ([3]; myo-inositol 1%, 600 seconds): 3.40 g per 16 oz.
- Dissolved amino acid (g per 16 oz.) ([3]; myo-inositol 2%, 30 seconds): 1.91 g per 16 oz.
- Dissolved amino acid (g per 16 oz.) ([3]; myo-inositol 2%, 60 seconds): 2.36 g per 16 oz.
- Dissolved amino acid (g per 16 oz.) ([3]; myo-inositol 2%, 90 seconds): 2.67 g per 16 oz.
- Dissolved amino acid (g per 16 oz.) ([3]; myo-inositol 2%, 240 seconds): 3.25 g per 16 oz.
- Dissolved amino acid (g per 16 oz.) ([3]; myo-inositol 2%, 600 seconds): 3.45 g per 16 oz.
- Dissolved amino acid (g per 16 oz.) ([3]; myo-inositol 4%, 30 seconds): 2.02 g per 16 oz.
- Dissolved amino acid (g per 16 oz.) ([3]; myo-inositol 4%, 60 seconds): 2.47 g per 16 oz.
- Dissolved amino acid (g per 16 oz.) ([3]; myo-inositol 4%, 90 seconds): 2.72 g per 16 oz.
- Dissolved amino acid (g per 16 oz.) ([3]; myo-inositol 4%, 240 seconds): 3.23 g per 16 oz.
- Dissolved amino acid (g per 16 oz.) ([3]; myo-inositol 4%, 600 seconds): 3.38 g per 16 oz.
- Dissolved amino acid (g per 16 oz.) ([3]; myo-inositol 8%, 30 seconds): 1.94 g per 16 oz.
- Dissolved amino acid (g per 16 oz.) ([3]; myo-inositol 8%, 60 seconds): 2.45 g per 16 oz.
- Dissolved amino acid (g per 16 oz.) ([3]; myo-inositol 8%, 90 seconds): 2.66 g per 16 oz.
- Dissolved amino acid (g per 16 oz.) ([3]; myo-inositol 8%, 240 seconds): 3.30 g per 16 oz.
- Dissolved amino acid (g per 16 oz.) ([3]; myo-inositol 8%, 600 seconds): 3.48 g per 16 oz.
- Leu dissolved at 30 seconds (g/16 oz.) ([4]; 30 seconds): 0.422 ± 0.018 g/16 oz.
- Leu dissolved at 60 seconds (% of total Leu) ([4]; 60 seconds): 23.7 ± 1.0 % of total Leu
- Leu dissolved at 60 seconds (g/16 oz.) ([4]; 60 seconds): 0.828 ± 0.036 g/16 oz.
SMILES: CC(C)C[C@H](N)C(=O)O [Leucine, L-Leucine]
